Experimental data reported in paper PMC3242765, “Inhibitors of Alphavirus Entry and Replication Identified with a Stable Chikungunya Replicon Cell Line and Virus-Based Assays” (PLoS ONE, 2011).
Where “and” joins values, the source holds several entries; their conditions need not be identical. Equal values may be shown once. Where a name gives a salt, the structure may show the parent alone.

Legend:
CHIKV replicon = assay: microbe, parasite or virus in culture; type: cell-based, Chikungunya virus (CHIKV)

Row | SMILES | SFV replication % left (surviving fraction, remaining percentage of SFV replication) (SFV-Rluc) | CHIKV replicon % left (CHIKV replicon)
1 | CCCNc1ccc(C(=O)OCC(O)CN(C)C)cc1 (stereo not shown) [Cornecaine] | 77.3% | 80.5%
2 | CCN(CC)c1ccc2cc(-c3nc4ccccc4[nH]3)c(=O)oc2c1 [Coumarin 7] | 37.3% | 51.8%
3 | Cc1cc(=O)oc2c3c4c(cc12)CCCN4CCC3 [Coumarin 102] | 34.6% | 65.4%
4 | O=c1oc2c3c4c(cc2c2c1CCC2)CCCN4CCC3 [Coumarin 106] | 82.1% | 91.5%
5 | O=c1cc(C(F)(F)F)c2cc3c4c(c2o1)CCCN4CCC3 [Coumarin 153] | 52.6% | 96.1%
6 | O=c1ccc2ccccc2o1 [Coumarin] | 68.8% | 85.0%
7 | Oc1cc(O)c2cc(O)c(-c3ccc(O)c(O)c3)[o+]c2c1 [Cyanidin chloride] | 24.5% | 54.8%
8 | O=S(=O)(O)NC1CCCCC1 [Cyclamic acid] | 74.9% | 107.5%
9 | OCc1ccccc1O[C@@H]1O[C@H](CO)[C@@H](O)[C@H](O)[C@H]1O [D(-)-Salicin] | 104.4% | 99.4%
10 | O=c1c(-c2ccc(O)cc2)coc2cc(O)ccc12 [Daidzein] | 76.6% | 104.4%
11 | COc1ccc2ccc(=O)oc2c1O [Daphnetin-7-methylether] | 105.6% | 89.9%
12 | O=c1ccc2ccc(O)c(O)c2o1 [Daphnetin] | 90.6% and 81.7% | 103.7% and 92.1%
13 | C[C@H](CCC(=O)O)[C@H]1CC[C@H]2[C@@H]3CC[C@@H]4C[C@H](O)CC[C@]4(C)[C@H]3C[C@H](O)[C@]12C [Deoxycholic acid] | 86.5% | 100.8%
14 | Cc1cc(N)c2ccccc2[n+]1CCCCCCCCCC[n+]1c(C)cc(N)c2ccccc21 [Dequalinium chloride] | 62.5% | 39.4%
15 | NCCN1C(=O)CN=C(c2ccccc2F)c2cc(Cl)ccc21 [Desalkylflurazepam] | 68.5% | 74.3%
16 | CN(C)CC[C@@H](c1ccc(Br)cc1)c1ccccn1 [Dexbrompheniramine maleate] | 69.6% | 100.4%
17 | CN(C)CC[C@@H](c1ccc(Cl)cc1)c1ccccn1 [Dexchlorpheniramine maleate] | 68.1% | 51.7%
18 | CN1C(=O)CN=C(c2ccccc2)c2cc(Cl)ccc21 [Diazepam] | 73.6% | 84.0%
19 | CCCCOc1cc(C(=O)NCCN(CC)CC)c2ccccc2n1 [Dibucaine hydrochloride] | 77.8% | 100.5%

Row | SMILES | SFV replication % left (surviving fraction, remaining percentage of SFV replication) (SFV-Rluc) | CHIKV replicon % left (CHIKV replicon)
20 | CC(C)NCC(O)c1ccc(Cl)c(Cl)c1.Cl (stereo not shown) [Dichloroisoproterenol hydrochloride] | 49.6% | 69.2%
21 | O=c1oc2ccccc2c(O)c1Cc1c(O)c2ccccc2oc1=O [Dicumarol] | 65.6% | 43.0%
22 | CCN(CC)C(C)C(=O)c1ccccc1 (stereo not shown) [Diethylpropion hydrochloride] | 47.1% | 29.6%
23 | C[C@H]1O[C@@H](O[C@H]2[C@@H](O)C[C@H](O[C@H]3[C@@H](O)C[C@H](O[C@H]4CC[C@@]5(C)[C@H](CC[C@@H]6[C@@H]5C[C@@H](O)[C@]5(C)[C@@H](C7=CC(=O)OC7)CC[C@]65O)C4)O[C@@H]3C)O[C@@H]2C)C[C@H](O)[C@@H]1O [Digoxin] | 141.9% | 94.3%
24 | CN(C)CCOC(c1ccccc1)c1ccccc1 [Diphenhydramine hydrochloride] | 41.0% | 194.3%
25 | O=C1NC(=O)C(c2ccccc2)(c2ccccc2)N1 [Diphenylhydantoin [phenytoin]] | 66.3% | 78.1%
26 | CN(C)CCC=C1c2ccccc2COc2ccccc21 [Doxepin hydrochloride] | 21.6% | 87.2%
27 | CCOc1ccc(NC(N)=O)cc1 [Dulcin [p-phenetylurea]] | 103.3% | 70.2%
28 | O=c1oc2c(O)c(O)cc3c(=O)oc4c(O)c(O)cc1c4c23 [Ellagic acid] | 64.9% | 71.1%
29 | CC[C@H]1CN2CCc3cc(OC)c(OC)cc3[C@@H]2C[C@@H]1C[C@H]1NCCc2cc(OC)c(OC)cc21 [Emetine dihydrochloride] | 63.1% | 80.9%
30 | O=c1ccc2cc(O)c(O)cc2o1 [Esculetin] | 103.6% | 89.2%
31 | O.O.O.O=c1ccc2cc(O[C@@H]3O[C@H](CO)[C@@H](O)[C@H](O)[C@H]3O)c(O)cc2o1.O=c1ccc2cc(O[C@@H]3O[C@H](CO)[C@@H](O)[C@H](O)[C@H]3O)c(O)cc2o1 [Esculin sesquihydrate] | 95.0% | 102.6%
32 | CCN(CC)C(=O)c1ccc(O)c(OC)c1 [Ethamivan] | 85.5% | 43.1%
33 | CCN(CC)C(C)CN1c2ccccc2Sc2ccccc21 (stereo not shown) [Ethopropazine hydrochloride] | 20.1% | 59.8%
34 | CCOc1ccc2c(c1)C(C)=CC(C)(C)N2 [Ethoxyquin] | 96.4% | 83.6%
35 | CCOC(=O)c1ccc(O)cc1 [Ethyl 4-hydroxybenzoate] | 127.8% | 94.4%
36 | CCC(N)C(O)c1ccc(O)c(O)c1 (stereo not shown) [Ethylnorepinephrine] | 126.8% | 104.3%
37 | CCNCC(O)c1cccc(O)c1 (stereo not shown) [Etilefrin] | 116.8% | 87.1%
38 | CC(C(=O)[O-])c1cccc(Oc2ccccc2)c1.CC(C(=O)[O-])c1cccc(Oc2ccccc2)c1.[Ca+2] (stereo not shown) [Fenoprofen calcium salt] | 87.6% | 78.3%
